Test results taken from ChEMBL document CHEMBL5506069, “A Unique Hybridization Route to Access Hydrazylnaphthalimidols as Novel Structural Scaffolds of Multitargeting Broad-Spectrum Antifungal Candidates” (J Med Chem, 2024).
In brackets after ≈: the same amount, converted by molar mass. Activity calls are given as the source filed them. No cut-off for these calls is given here.

Legend:
Candida albicans [1] = assay: Antifungal activity against Candida albicans assessed as inhibition of fungal growth incubated for 24 hrs by CLSI based microbroth dilution method; format: functional
Candida albicans [2] = assay: Antifungal activity against Candida albicans ATCC 90023 assessed as inhibition of fungal growth incubated for 24 hrs by CLSI based microbroth dilution method; format: functional
Aspergillus fumigatus = assay: Antifungal activity against Aspergillus fumigatus assessed as inhibition of fungal growth incubated for 24 hrs by CLSI based microbroth dilution method; format: functional
Candida tropicalis = assay: Antifungal activity against Candida tropicalis assessed as inhibition of fungal growth incubated for 24 hrs by CLSI based microbroth dilution method; format: functional
Candida parapsilosis = assay: Antifungal activity against Candida parapsilosis ATCC 22019 assessed as inhibition of fungal growth incubated for 24 hrs by CLSI based microbroth dilution method; format: functional; details: Lodderomyces parapsilosis
Candida albicans [3] = assay: Potency index, ratio of fluconazole MIC to test compound MIC for antifungal activity against Candida albicans assessed as inhibition of fungal growth incubated for 24 hrs by CLSI based microbroth dilution method; format: functional
Candida albicans [4] = assay: Antifungal activity against Candida albicans at 4 times MIC measured within 10 hrs by time kill assay; format: functional, organism-based
Candida albicans [5] = assay: Antifungal activity against Candida albicans measured after at 14 passages; format: functional, organism-based
L02 = assay: Cytotoxicity against human L02 cells assessed as effect on cell growth incubated for 24 to 48 hrs by MTT assay; format: toxicity, cell-based; details: time 24-48 hrs
[6] = Hemolytic activity in RBC (unknown origin) assessed as hemolysis rate 128 times MIC measured for 6 hrs by double dilution method; format: toxicity, cell-based, Erythrocyte; details: red blood cells (erythrocytes), read-out: Activity
Erythrocyte [7] = assay: Hemolytic activity in RBC (unknown origin) assessed as appearance of smooth surface at 128 times MIC measured for 6 hrs by microscopic analysis; format: toxicity, cell-based
Erythrocyte [8] = assay: Hemolytic activity in RBC (unknown origin) assessed as appearance of round surface at 128 times MIC measured for 6 hrs by microscopic analysis; format: toxicity, cell-based
Albumin [9] = target: T1, Albumin (Homo sapiens, UniProt P02768); assay: Binding affinity to human serum albumin assessed as Stem-Volmer quenching constant at 310K at pH 7.4 by fluorescence based analysis
Albumin [10] = target: T1, Albumin; assay: Binding affinity to human serum albumin assessed as Stem-Volmer quenching constant at 298K at pH 7.4 by fluorescence based analysis
Albumin [11] = target: T1, Albumin; assay: Binding affinity to human serum albumin assessed as Stem-Volmer quenching constant at 286K at pH 7.4 by fluorescence based analysis
Cell membrane [12] = assay: Induction of cell membrane damage in Candida albicans assessed as increase in fluorescent intensity at 0.5 to 8 times MIC measured for 6 hrs by PI staining based spectrofluorimeter analysis; format: subcellular
Cell membrane [13] = assay: Induction of cell membrane damage in Candida albicans assessed as increase in red fluorescent intensity at 4 to 8 times MIC measured for 6 hrs by PI staining based spectrofluorimeter analysis
Cell membrane [14] = assay: Induction of cytoplasmic membrane depolarization in Candida albicans assessed as increase in fluorescence intensity at 4 times MIC measured for 30 mins by DiSC3-5 dye based fluorescence method; format: cell membranes
Cell membrane [15] = assay: Induction of cell membrane potential loss in Candida albicans assessed as change in fluorescence intensity at 4 times MIC measured for 30 mins by DiSC3-5 dye based fluorescence method; format: subcellular
Candida albicans [16] = assay: Induction of morphological changes in Candida albicans assessed as appearance of oval shape by SEM analysis; format: functional, organism-based
Candida albicans [17] = assay: Induction of morphological changes in Candida albicans assessed as appearance of regular continuous surface by SEM analysis; format: functional, organism-based
Candida albicans [18] = assay: Induction of morphological changes in Candida albicans assessed as deformation of cell shape at 2 times MIC measured after 6 hrs by SEM analysis; format: functional, organism-based
Candida albicans [19] = assay: Induction of morphological changes in Candida albicans assessed as appearance of dented surface at 2 times MIC measured after 6 hrs by SEM analysis; format: functional, organism-based
Candida albicans [20] = assay: Induction of morphological changes in Candida albicans assessed as appearance of atrophied surface at 2 times MIC measured after 6 hrs by SEM analysis; format: functional, organism-based
Candida albicans [21] = assay: Antifungal activity against Candida albicans assessed as reduction in metabolic activity by measuring fluorescence intensity at 0.5 to 8 times MIC measured for 6 hrs by alamar blue staining based analysis; format: functional, organism-based
Candida albicans [22] = assay: Antifungal activity against Candida albicans assessed as reduction in metabolic activity by measuring fluorescence intensity measured for 6 hrs by alamar blue staining based analysis; format: functional, organism-based
Candida albicans [23] = assay: Antifungal activity against Candida albicans assessed as reduction in LDH activity by measuring fluorescence intensity at 8 times MIC measured for 6 hrs by alamar blue staining based analysis; format: functional; set-up: scale not given: the % may be the effect or the level left
Candida albicans [24] = assay: Antifungal activity against Candida albicans assessed as reduction in LDH activity by measuring fluorescence intensity measured for 6 hrs by alamar blue staining based analysis; format: functional, organism-based
Candida albicans [25] = assay: Induction of intracellular ROS production in Candida albicans assessed as increase in fluorescence intensity incubated for 6 hrs by DCFH-DA staining based analysis; format: functional, organism-based
Candida albicans [26] = assay: Induction of intracellular ROS production in Candida albicans assessed as fold increase in fluorescence intensity at 1 times MIC incubated for 6 hrs by DCFH-DA staining based analysis; format: functional
Candida albicans [27] = assay: Induction of intracellular ROS production in Candida albicans assessed as fold increase in fluorescence intensity at 4 to 128 times MIC incubated for 6 hrs by DCFH-DA staining based analysis; format: functional, organism-based
Candida albicans [28] = assay: Induction of intracellular ROS production in Candida albicans assessed as increase in green fluorescence intensity at 4 times MIC incubated for 6 hrs by fluorescence microscopic analysis; format: functional, organism-based
Candida albicans [29] = assay: Antioxidant activity in Candida albicans assessed as decrease in GSH content measured at 5 mins by ellman method; format: functional; set-up: scale not given: the % may be the effect or the level left
Candida albicans [30] = assay: Antioxidant activity in Candida albicans assessed as decrease in GSH content at 2 times MIC measured at 30 mins by ellman method; format: functional; set-up: scale not given: the % may be the effect or the level left; details: 0.5 h
Candida albicans [31] = assay: Antioxidant activity in Candida albicans assessed as decrease in GSH content at 1 times MIC measured at 30 mins by ellman method; format: functional; set-up: scale not given: the % may be the effect or the level left; details: 0.5 h
Candida albicans [32] = assay: […] in Candida albicans assessed as decrease in pink fluorescence by resazurin staining based analysis; format: functional, organism-based
Calf thymus DNA [33] = assay: Binding affinity to calf thymus DNA assessed as change in red shift by measuring hypochromism upto 7 mM by UV-Vis absorption spectra analysis; format: nucleic-acid assay; details: Bos taurus
Calf thymus DNA [34] = assay: Binding affinity to calf thymus DNA assessed as DNA-compound complex formation by measuring hyperchromism upto 7 mM by UV-Vis absorption spectra analysis; format: nucleic-acid assay; details: Bos taurus
Calf thymus DNA [35] = assay: Binding affinity to calf thymus DNA assessed as binding constant by UV-Vis absorption spectra analysis; format: nucleic-acid assay; details: Bos taurus
Calf thymus DNA [36] = assay: Binding affinity to calf thymus DNA assessed as decrease in fluorescence intensity by acridine orange dye based by UV-Vis absorption spectra analysis; format: nucleic-acid assay; details: Bos taurus
Calf thymus DNA [37] = assay: Induction of DNA cleavage in calf thymus DNA assessed as change in DNA band formation at 0.05 to 0.5 mM by agarose gel electrophoresis analysis; format: nucleic-acid assay; details: Bos taurus; dose 0.05-0.5 mM
Calf thymus DNA [38] = assay: Induction of DNA cleavage in calf thymus DNA at 0.05 to 0.5 mM in presence of Cu2+ by agarose gel electrophoresis analysis; format: nucleic-acid assay; details: Bos taurus; dose 0.05-0.5 mM
Calf thymus DNA [39] = assay: Induction of DNA cleavage in calf thymus DNA at 0.05 to 0.5 mM in presence of Zn2+ by agarose gel electrophoresis analysis; format: nucleic-acid assay; details: Bos taurus; dose 0.05-0.5 mM
Calf thymus DNA [40] = assay: Induction of DNA cleavage in calf thymus DNA at 0.5 mM in presence of Zn2+ by agarose gel electrophoresis analysis; format: nucleic-acid assay; details: Bos taurus
Calf thymus DNA [41] = assay: Induction of DNA cleavage in calf thymus DNA at 0.5 mM in presence of Cu2+ by agarose gel electrophoresis analysis; format: nucleic-acid assay; details: Bos taurus
Candida albicans [42] = assay: Antibiofilm activity against Candida albicans assessed as reduction in residual biomass measured for 24 hrs by crystal violet staining based; format: functional, organism-based; details: dose <= 8.0 µg/ml
Candida albicans [43] = assay: Antibiofilm activity against Candida albicans assessed as inhibition of biofilm formation at 0.5 to 8 microg/ml measured for 24 hrs by crystal violet staining based; format: functional; details: dose 0.5-8 µg/ml, at 0.5 to 8 µg/mL

T1 sequence (P02768 whole entry): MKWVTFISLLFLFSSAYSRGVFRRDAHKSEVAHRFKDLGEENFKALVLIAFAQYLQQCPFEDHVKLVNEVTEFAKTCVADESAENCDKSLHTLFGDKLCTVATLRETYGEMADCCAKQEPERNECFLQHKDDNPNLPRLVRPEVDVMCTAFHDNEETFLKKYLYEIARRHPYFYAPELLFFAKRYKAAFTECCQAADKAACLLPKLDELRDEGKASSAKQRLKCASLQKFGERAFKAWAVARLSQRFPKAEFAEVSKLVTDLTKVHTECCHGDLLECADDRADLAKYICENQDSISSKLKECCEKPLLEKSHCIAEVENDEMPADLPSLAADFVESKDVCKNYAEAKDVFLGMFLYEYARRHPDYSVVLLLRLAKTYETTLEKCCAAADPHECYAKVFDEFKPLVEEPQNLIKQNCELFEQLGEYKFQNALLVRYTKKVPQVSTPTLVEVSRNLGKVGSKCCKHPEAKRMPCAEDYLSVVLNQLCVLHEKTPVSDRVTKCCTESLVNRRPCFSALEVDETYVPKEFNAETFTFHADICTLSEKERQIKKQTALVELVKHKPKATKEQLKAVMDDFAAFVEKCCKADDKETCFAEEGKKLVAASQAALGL

SMILES: O=C1c2cccc3c(N/N=C/c4ccc([N+](=O)[O-])o4)ccc(c23)C(=O)N1CCO
- MIC (Candida albicans [1]): 1 µM (≈ 0.394 µg/mL)
- MIC (Candida albicans [2]): 2 µM (≈ 0.789 µg/mL)
- MIC (Aspergillus fumigatus): 4 µM (≈ 1.58 µg/mL)
- MIC (Candida tropicalis): 2 µM (≈ 0.789 µg/mL)
- MIC (Candida parapsilosis): 4 µM (≈ 1.58 µg/mL)
- Ratio (Candida albicans [3]): 13
- Activity (Candida albicans [4]): Active
- Activity (Candida albicans [5]): Active
- Activity (L02): Non-Toxic
- hemolysis at 6 h, 128 times MIC [6]: < 5%
- Activity (Erythrocyte [7]): Non-Toxic
- Activity (Erythrocyte [8]): Non-Toxic
- KSV (Albumin [9]): 8.82 10^4L/mol
- KSV (Albumin [10]): 9.34 10^4L/mol
- KSV (Albumin [11]): 12.6 10^4L/mol
- Activity (Cell membrane [12]): Active
- Activity (Cell membrane [13]): Active
- Activity (Cell membrane [14]): inactive
- Activity (Cell membrane [15]): inactive
- Activity (Candida albicans [16]): Active
- Activity (Candida albicans [17]): Active
- Activity (Candida albicans [18]): Active
- Activity (Candida albicans [19]): Active
- Activity (Candida albicans [20]): Active
- Activity (Candida albicans [21]): Active
- Activity (Candida albicans [22]): Dose-Dependent Effect
- Activity (Candida albicans [23]): <55%
- Activity (Candida albicans [24]): Dose-Dependent Effect
- Activity (Candida albicans [25]): Dose-Dependent Effect
- fold change (FC) (Candida albicans [26]): 2.5
- Activity (Candida albicans [27]): Active
- Activity (Candida albicans [28]): Active
- Activity (Candida albicans [29]): 70%
- Activity (Candida albicans [30]): 40%
- Activity (Candida albicans [31]): 50%
- Activity (Candida albicans [32]): Dose-Dependent Effect
- Activity (Calf thymus DNA [33]): Active
- Activity (Calf thymus DNA [34]): Active
- K (Calf thymus DNA [35]): 2.4 10^4L/mol
- Activity (Calf thymus DNA [36]): Active
- Activity (Calf thymus DNA [37]): inactive
- Activity (Calf thymus DNA [38]): inactive
- Activity (Calf thymus DNA [39]): inactive
- Activity (Calf thymus DNA [40]): inactive
- Activity (Calf thymus DNA [41]): inactive
- Activity (Candida albicans [42]): Dose-Dependent Effect
- inhibition (INH) (Candida albicans [43]): 22%
